US10239849B2 (Merck Sharp & Dohme Corp., priority 2015, dated 2019)

Key:
[1] = target: T1, glutathione-S-transferase (GST) tagged LXRbeta LBD (ligand binding domain) (Homo sapiens, UniProt P55055); test: LanthaScreen TR-FRET Liver X Receptor Coactivator Assay, LXR beta-LBD; format: biochemical; settings: for Emax: efficacy in relation to reference dual agonist T1317, read-out: LXR beta activity at max dose (%) (Emax); for EC50: potency (Inflection Point) of co-activator recruitment, TR-FRET, read-out: LXR beta IP
T1 construct: purchased Invitrogen pv4658.pps
T1 sequence (P55055 222-460 limits assumed): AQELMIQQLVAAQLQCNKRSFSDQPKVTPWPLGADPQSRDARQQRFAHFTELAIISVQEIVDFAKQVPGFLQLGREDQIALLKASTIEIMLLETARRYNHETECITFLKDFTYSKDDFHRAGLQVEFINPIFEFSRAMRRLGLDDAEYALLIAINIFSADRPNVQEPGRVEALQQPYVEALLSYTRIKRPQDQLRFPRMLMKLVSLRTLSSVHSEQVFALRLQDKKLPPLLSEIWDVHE
In short: (§1)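 LXR alpha- or beta-LBD added to test compounds, then fluorescein-labelled coactivator peptide plus terbium anti-GST antibody. After incubation at room temperature, TR-FRET read on a filter-based plate reader.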

[2] = target: T2, glutathione-S-transferase (GST) tagged LXRalpha LBD (ligand binding domain) (Homo sapiens, UniProt Q13133); test: LanthaScreen TR-FRET Liver X Receptor Coactivator Assay, LXR alpha-LBD; format: biochemical; settings: for Emax: efficacy in relation to reference dual agonist T1317, read-out: LXR alpha activity at max dose (%) (Emax); for EC50 / LXR alpha IP (nM): potency (Inflection Point) of co-activator recruitment, TR-FRET; for EC50: read-out: LXR alpha IP
T2 construct: purchased Invitrogen pv4655
T2 sequence (Q13133 209-447 limits assumed): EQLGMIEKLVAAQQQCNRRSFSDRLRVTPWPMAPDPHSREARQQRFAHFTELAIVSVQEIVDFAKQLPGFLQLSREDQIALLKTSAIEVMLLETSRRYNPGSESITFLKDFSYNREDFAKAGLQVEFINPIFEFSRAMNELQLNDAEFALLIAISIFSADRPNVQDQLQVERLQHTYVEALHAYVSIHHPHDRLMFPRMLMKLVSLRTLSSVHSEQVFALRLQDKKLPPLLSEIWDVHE
In short: as §1

CN(C)C(=O)c1ccc(-c2ccc(N3CCN(S(=O)(=O)c4c(Cl)cccc4C(F)(F)F)CC3)cc2)cc1Cl [Example 4-14, 3-chloro-4′-(4-{[2-chloro-6-(trifluoromethyl)phenyl]sulfonyl}piperazin-1-yl)-N,N-dimethylbiphenyl-4-carboxamide]
Emax [1]: 88%
EC50 [1]: 0.549 µM
Emax [2]: 25%
EC50 [2]: 9.81 µM

CN(C)C(=O)c1ccc(-c2ccc(N3CCN(C(=O)c4ccccc4Cl)CC3)cc2)cc1Cl [Example 4-15, 3-chloro-4′-{4-[(2-chlorophenyl)carbonyl]piperazin-1-yl}-N,N-dimethylbiphenyl-4-carboxamide]
Emax [1]: 85%
EC50 [1]: 1.67 µM
Emax [2]: 16%
LXR alpha IP (nM) [2]: No IP

CN(C)C(=O)c1ccc(-c2ccc(N3CCN(C(=O)c4c(F)cccc4F)CC3)cc2)cc1Cl [Example 4-16, 3-chloro-4′-{4-[(2,6-difluorophenyl)carbonyl]piperazin-1-yl}-N,N-dimethylbiphenyl-4-carboxamide]
Emax [1]: 77%
EC50 [1]: 4.16 µM
Emax [2]: 19%
LXR alpha IP (nM) [2]: No IP

CN(C)C(=O)c1ccc(-c2ccc(N3CCN(C(=O)c4ccccc4C(F)(F)F)CC3)cc2)cc1Cl [Example 4-17, 3-chloro-N,N-dimethyl-4′-(4-{[2-(trifluoromethyl)phenyl]carbonyl}piperazin-1-yl)biphenyl-4-carboxamide]
Emax [1]: 80%
EC50 [1]: 1.39 µM
Emax [2]: 9%
LXR alpha IP (nM) [2]: No IP

CC(C)C(O)(C(=O)N1CCN(c2ccc(-c3ccc(C(=O)N(C)C)c(Cl)c3)cc2)CC1)C(F)(F)F (stereo not shown) [Example 4-18, 3-chloro-4′-{4-[2-hydroxy-3-methyl-2-(trifluoromethyl)butanoyl]piperazin-1-yl}-N,N-dimethylbiphenyl-4-carboxamide]
Emax [1]: 65%
EC50 [1]: 0.259 µM
Emax [2]: 20%
EC50 [2]: 1.29 µM

CN(C)C(=O)c1ccc(-c2ccc(N3CCN(C(=O)c4c(F)cccc4Cl)CC3)cc2)cc1Cl [Example 4-19, 3-chloro-4′-{4-[(2-chloro-6-fluorophenyl)carbonyl]piperazin-1-yl}-N,N-dimethylbiphenyl-4-carboxamide]
Emax [1]: 93%
EC50 [1]: 1.27 µM
Emax [2]: 20%
EC50 [2]: 16.9 µM

CN(CCO)C(=O)c1ccc(-c2cnc(N3CCN(C(=O)OC(C)(C)C)CC3)c(C#N)c2)cc1Cl [Example 5-1, tert-butyl-4-(5-{3-chloro-4-[(2-hydroxyethyl)(methyl)carbamoyl]phenyl}-3-cyanopyridin-2-yl)piperazine-1-carboxylate]
Emax [1]: 80%
EC50 [1]: 0.04 µM
Emax [2]: 68%
EC50 [2]: 1.26 µM

CC(C)(C)OC(=O)N1CCN(c2ncc(-c3ccc(C(N)=O)c(Cl)c3)cc2C#N)CC1 [Example 5-2, tert-butyl 4-[5-(4-carbamoyl-3-chlorophenyl)-3-cyanopyridin-2-yl]piperazine-1-carboxylate]
Emax [1]: 94%
EC50 [1]: 0.094 µM
Emax [2]: 66%
EC50 [2]: 2.03 µM

CNC(=O)c1ccc(-c2cnc(N3CCN(C(=O)OC(C)(C)C)CC3)c(C#N)c2)cc1Cl [Example 5-3, tert-butyl 4-{5-[3-chloro-4-(methylcarbamoyl)phenyl]-3-cyanopyridin-2-yl}piperazine-1-carboxylate]
Emax [1]: 82%
EC50 [1]: 0.176 µM
Emax [2]: 76%
EC50 [2]: 33.7 µM

CC(C)(C)OC(=O)N1CCN(c2ncc(-c3ccc(C(=O)N4CCC4)c(Cl)c3)cc2C#N)CC1 [Example 5-4, tert-butyl 4-{5-[4-(azetidin-1-ylcarbonyl)-3-chlorophenyl]-3-cyanopyridin-2-yl}piperazine-1-carboxylate]
Emax [1]: 71%
EC50 [1]: 1.52 µM
Emax [2]: 39%
EC50 [2]: 21.2 µM

CCN(C)C(=O)c1ccc(-c2cnc(N3CCN(C(=O)OC(C)(C)C)CC3)c(C#N)c2)cc1Cl [Example 5-5, tert-butyl 4-(5-{3-chloro-4-[ethyl(methyl)carbamoyl]phenyl}-3-cyanopyridin-2-yl)piperazine-1-carboxylate]
Emax [1]: 76%
EC50 [1]: 0.088 µM
Emax [2]: 54%
EC50 [2]: 2.68 µM

CN(C)NC(=O)c1ccc(-c2cnc(N3CCN(C(=O)OC(C)(C)C)CC3)c(C#N)c2)cc1Cl [Example 5-6, tert-butyl 4-(5-{3-chloro-4-[(2,2-dimethylhydrazino)carbonyl]phenyl}-3-cyanopyridin-2-yl)piperazine-1-carboxylate]
Emax [1]: 77%
EC50 [1]: 0.435 µM
Emax [2]: 43%
EC50 [2]: 8.78 µM

CON(C)C(=O)c1ccc(-c2cnc(N3CCN(C(=O)OC(C)(C)C)CC3)c(C#N)c2)cc1Cl [Example 5-7, tert-butyl 4-(5-{3-chloro-4-[methoxy(methyl)carbamoyl]phenyl}-3-cyanopyridin-2-yl)piperazine-1-carboxylate]
Emax [1]: 69%
EC50 [1]: 0.082 µM
Emax [2]: 39%
EC50 [2]: 2.66 µM

CN(CC#N)C(=O)c1ccc(-c2cnc(N3CCN(C(=O)OC(C)(C)C)CC3)c(C#N)c2)cc1Cl [Example 5-8, tert-butyl 4-(5-{3-chloro-4-[(cyanomethyl) (methyl)carbamoyl]phenyl}-3-cyanopyridin-2-yl)piperazine-1-carboxylate]
Emax [1]: 91%
EC50 [1]: 0.17 µM
Emax [2]: 58%
EC50 [2]: 14.9 µM

CC(C)(C)OC(=O)N1CCN(c2ncc(-c3ccc(C(=O)N4CCCC4)c(Cl)c3)cc2C#N)CC1 [Example 5-9, tert-butyl 4-{5-[3-chloro-4-(pyrrolidin-1-ylcarbonyl)phenyl]-3-cyanopyridin-2-yl}piperazine-1-carboxylate]
Emax [1]: 71%
EC50 [1]: 0.274 µM
Emax [2]: 48%
EC50 [2]: 14.3 µM

CC(C)(C)OC(=O)N1CCN(c2ncc(-c3ccc(C(=O)NCCCO)c(Cl)c3)cc2C#N)CC1 [Example 5-10, tert-butyl 4-(5-{3-chloro-4-[(3-hydroxypropyl)carbamoyl]phenyl}-3-cyanopyridin-2-yl)piperazine-1-carboxylate]
Emax [1]: 63%
EC50 [1]: 1.09 µM
Emax [2]: 37%
EC50 [2]: 2.71 µM

CC(C)(C)OC(=O)N1CCN(c2ncc(-c3ccc(C(=O)N4CCCCC4)c(Cl)c3)cc2C#N)CC1 [Example 5-11, tert-butyl 4-{5-[3-chloro-4-(piperidin-1-ylcarbonyl)phenyl]-3-cyanopyridin-2-yl}piperazine-1-carboxylate]
Emax [1]: 59%
EC50 [1]: 0.3 µM
Emax [2]: 89%
EC50 [2]: 11.7 µM

CC(C)(C)OC(=O)N1CCN(c2ncc(-c3ccc(C(=O)N4CC[C@@H](O)C4)c(Cl)c3)cc2C#N)CC1 [Example 5-12, tert-butyl 4-[5-(3-chloro-4-{[(3R)-3-hydroxypyrrolidin-1-yl]carbonyl}phenyl)-3-cyanopyridin-2-yl]piperazine-1-carboxylate]
Emax [1]: 60%
EC50 [1]: 0.481 µM
Emax [2]: 37%
EC50 [2]: 8.44 µM

CC(C)(C)OC(=O)N1CCN(c2ncc(-c3ccc(C(=O)N4CC[C@H](O)C4)c(Cl)c3)cc2C#N)CC1 [Example 5-13, tert-butyl 4-[5-(3-chloro-4-{[(3S)-3-hydroxypyrrolidin-1-yl]carbonyl}phenyl)-3-cyanopyridin-2-yl]piperazine-1-carboxylate]
Emax [1]: 62%
EC50 [1]: 0.262 µM
Emax [2]: 44%
EC50 [2]: 6.9 µM
